Laboratory results reported in patent US20260325643A1, “METHOD AND PHARMACEUTICAL COMPOSITION FOR VISIBLE LIGHT-INDUCED CORNEAL CROSSLINKING WITH RUTHENIUM COMPOUNDS FOR THE TREATMENT OF EYE DISORDERS” (KOC UNIVERSITESI, priority 2022, published 2026).

Assays:
bovine corneas [1] = test: Rheological measurements of crosslinked corneas (time sweep); conditions: 2 mM riboflavin, UV-A 365 nm, after 30 min
Experimental: (§1) For biomechanical experiments, bovine corneas were used. First the corneal epithelia were removed with a scalpel blade and 8 mm central corneal buttons were isolated from bovine eyes with a trephine blade (Katena, Parsippany, NJ, USA). After that, corneal buttons separated into three different experimental groups: • Ruthenium (Ru)-Sodium persulfate (SPS)/visible light, • Riboflavin/UV-A light, and • Control groups.
[Ru(bpy)3]^2+ and SPS solution was prepared in PBS via dissolving Tris(2,2′-bipyridyl)dichlororuthenium(II) hexahydrate (544981, Sigma-Aldrich, MO, USA) and sodium persulfate (216232, Sigma-Aldrich, MO, USA). Ru-SPS solution was prepared in two different concentrations: 0.001 M (1 mM) and 0.0001 M (0.1 mM) was dropped on corneal buttons and the samples were incubated for 5 min for the samples in the Ru-SPS experimental group. Then all solutions were removed, and 430 nm visible light (3 mW/cm^2) was applied to the samples for 40 min. […]
Rheological measurements were carried out in time sweep mode with 1 Hz frequency, 1% strain using TA Instruments AR/DHR series rheometer (New Castle, DE) equipped with two different light sources: visible light ([…]) and UV-A light (λ=365 nm). […] Storage and loss moduli profiles were recorded as a function of time continuously for 40 min at ambient conditions. […]

bovine corneas [2] = test: Uniaxial stress-strain test of corneal strips
Experimental: as §1
(§2) [Ru(bpy)3]^2+ and SPS solution was prepared in PBS via dissolving Tris(2,2′-bipyridyl)dichlororuthenium(II) hexahydrate (544981, Sigma-Aldrich, MO, USA) and sodium persulfate (216232, Sigma-Aldrich, MO, USA). Ru-SPS solution was prepared in two different concentrations: 0.001 M (1 mM) and 0.0001 M (0.1 mM) was dropped on corneal buttons and the samples were incubated for 5 min for the samples in the Ru-SPS experimental group. Then all solutions were removed, and 430 nm visible light (3 mW/cm^2) was applied to the samples for 40 min. To mimic the standard CXL corneal collagen crosslinking procedure for the riboflavin experimental group, 0.002 M (2 mM) riboflavin 5′-monophosphate solution (18167, Cayman Chemical, MI, USA) was dropped on corneal buttons and the samples were incubated for 5 min. Then riboflavin solution was removed, and 365 nm visible light (3 mW/cm^2) applied to the cornea samples for 40 min. No solution or light was applied to the corneas in the control group.
The stress-strain test was performed on a full-thickness minus the epithelium corneal strips dissected from the bovine corneas. The mechanical properties of all the samples were determined using force and displacement measurements. The initial cross-sectional area and the corresponding force measurements of each test sample were used to calculate the engineering stress. The maximum displacement at the breakage point of each sample was used to estimate the change in the length of each sample. This change in the length was related nominally to the initial length of the corresponding test sample to calculate the engineering strain. The modulus of elasticity and the ultimate tensile strength of each sample was then estimated by the engineering stress-strain curves. The ultimate tensile strength was defined as the peak value of stress on the stress-strain curve before the breakage point of the sample when being stretched. The linear regression analysis between the zero point and the point that equals 70% of the maximum stress for each sample was used to compute the modulus of elasticity. The modulus of elasticity is a material-dependent property such that it depends upon the internal structure and the bond strength between the atoms of each sample. Therefore, the modulus of elasticity remained similar for one sample type; however, it differed for other sample types. […]

bovine corneas [3] = test: Osmotic stress (swelling) test; conditions: 15% dextran-500 PBS overnight, then three hours in distilled water
Experimental: as §1
as §2, with “control group. […]” for “control group.”

bovine corneas [4] = test: Corneal optical transparency and Lambert-Beer penetration distance
Experimental: The standard protocol for corneal crosslinking can only be applied in cases with a corneal thickness above 400 μm. When applied to thinner corneas, UV-A beam reaches the corneal endothelial cells resulting in endothelial toxicity and corneal edema. For this purpose, the Lambert-Beer formula was applied for optical transmittance results of both photoinitiator solutions (FIG. 6C). Corneal light transmittance was then calculated with the Lambert-Beer formula: […]
In this formula, A represents the optical absorbance of the sample, ε represents the molar attenuation coefficient of the photoinitiator, c is the concentration of the photoinitiator, and l is the total optical path length of the light. For these calculations, molar attenuation coefficients for each photoinitiators (10066 M^−1 cm^−1 for riboflavin and 14,600 M^−1 cm^−1 for tris(2,2′-bipyridyl)ruthenium(II)) obtained from previous literature.[15, 16] […]
Corneal optical transparencies were measured in corresponding light wavelengths for each experimental group. For the 2 mM riboflavin-based crosslinked corneas, average optical transparency in 365 nm was measured as 0.713±0.222. In the same conditions, the average optical transparency for 1 mM ruthenium-based crosslinked corneas was measured as 0.724±0.050 in 430 nm light wavelength, which is correlated with the riboflavin-based CXL procedure. […]

bovine corneas [5] = test: Enzymatic digestion (collagenase) test of corneas; conditions: 24 hours of digestion by collagenases
Experimental: as §1
as §2, with “control group. […]” for “control group.”

bovine corneas [6] = test: UV & visible spectrophotometry of corneas; conditions: PBS, UV (300-400) and visible (400-800); different crosslinking procedures
Experimental: Optical transmission and absorption tests were performed on de-epithelized bovine corneas for the UV and visible light spectrum. Control and crosslinked corneas were submerged in PBS, and their optical transmission was assessed using a UV-Vis. Spectrometer (Edinburgh Instruments Spectrofluorometer FS5). Transmittance spectra (% T) were collected from 300 to 800 nm at 1 nm increments. […] The results are illustrated in FIGS. 7A-7B.

[7] = obtained from previous literature [15, 16]; cited from earlier work
cornea = conditions: background, cited from earlier work; for hardness / stiffness of cross-linked cornea: Rose Bengal/Green Light (532 nm) or riboflavin/UV-A
[8] = tested on: human corneal epithelial cells (HCECs) and limbal mesenchymal stem cells (LMSCs); test: Cell viability / cytotoxicity, HCECs and LMSCs taken together; assay type: cell-based; conditions: Ruthenium or/and SPS
From the text: Furthermore, the cytotoxic effects of Ruthenium and SPS compound on human corneal epithelial cells (HCECs) and limbal mesenchymal stem cells (LMSCs) were investigated to determine the ruthenium concentration and time needed for the cross-linking process. The relative viabilities of cells were detected by CellTiter-Glo® Luminescent Cell Viability Assay (Promega, Mannheim, Germany) detected the relative viabilities of cells, which is a method used to detect the number of viable cells depending on the amount of ATP in alive cells. […] (FIGS. 3A-3B)

LMSCs and HCECs = test: Annexin V-FITC/PI flow cytometry; assay type: cell-based, human; conditions: 1 hour treatment; compared with ruthenium-SPS treated cells
Experimental: The effects of [Ru(bpy)3]^2+ and SPS solutions on cell viability and apoptosis were examined by Annexin-V/propidium iodide (PI) staining in flow cytometry. LMSCs and HCECs (10^5 cells/well) were plated in 6-well culture dishes. [Ru(bpy)3]^2+ and SPS in various concentrations (1 mM and 10 mM) were added to the cell culture medium. The cells were incubated for 1 hour at 37 °C. After the treatment with the solutions, the cells were collected and washed with PBS at 4 °C. The cells were resuspended in 1× binding buffer at a 1×10^5 cells/ml density. 100 μl of the cell suspension were labeled with 2.5 μl of fluorochrome-conjugated Annexin V and 5 μl of PI according to the manufacturer's protocol (BioLegend, San Diego, CA, USA) and analyzed by using a flow cytometer (Attune N. T Flow Cytometer, Thermo Fisher Scientific, Waltham, MA, USA).
Annexin V-FITC and propidium iodide staining provide sensitive outcomes for detecting cellular apoptosis. While annexin V-FITC binds on the surface of cells that undergo programmed cell death, PI detects necrotic or late apoptotic cells characterized by loss of plasma and nuclear membrane integrity. Cells treated with [Ru(bpy)3]^2+ and/or SPS for 1 hour were harvested after treatment and stained with Annexin V-FITC and PI.

Row | Compound | average storage modulus (bovine corneas [1]) | stiffness compared to control (bovine corneas [2]; from modulus of elasticity) | increase of modulus of elasticity vs control (bovine corneas [2]; riboflavin-treated) | increase of ultimate tensile strength vs control (bovine corneas [2]; riboflavin-treated) | strain compared to control (bovine corneas [2]; stress-strain test) | swelling vs normal corneas (bovine corneas [3]) | average optical transparency (bovine corneas [4]; 2 mM riboflavin-based crosslinked corneas, 365 nm) | mean distance traveled in the bovine cornea (bovine corneas [4]; Lambert-Beer formula applied to optical transmittance results) | resistance to enzymatic digestion (bovine corneas [5]) | optical absorbance of corneas, change after crosslinking (bovine corneas [6]) | optical transmission of corneas, change after crosslinking (bovine corneas [6]) | molar attenuation coefficient [7] | hardness / stiffness of cross-linked cornea (cornea) | healing time of corneal haze, in some eyes (cornea; riboflavin/UV-A) | depth of cross-linking effect (cornea; Rose Bengal/Green Light (532 nm)) | cytotoxicity influence on viability of cells [8] | cell death (Annexin V-FITC/PI) (LMSCs and HCECs)
1 | Cc1cc2nc3c(=O)[nH]c(=O)nc-3n(C[C@H](O)[C@H](O)[C@H](O)COP(=O)(O)O)c2cc1C [riboflavin, riboflavin 5′-monophosphate] | 92.88 kPa | overall increasing stiffness | approximately 16% | approximately 16% | decreasing strain trend | less swelling | 0.713±0.222 | 719 μm | digested entirely after 24 hours | did not change significantly | did not change significantly | 10066 M⁻¹ cm⁻¹ | increased corneal stiffness | 6-12 months | – | – | –
2 | O=C1OC2(c3cc(I)c(O)c(I)c3Oc3c2cc(I)c(O)c3I)c2c(Cl)c(Cl)c(Cl)c(Cl)c21 [Rose Bengal] | – | – | – | – | – | – | – | – | – | – | – | – | increased hardness | – | more superficial effect | – | –
3 | O=S(=O)([O-])OOS(=O)(=O)[O-].[Na+].[Na+] [SPS, sodium persulfate] | – | – | – | – | – | – | – | – | – | – | – | – | – | – | – | dose-dependent cytotoxicity | higher degree of cell death than ruthenium-SPS treated cells
